From patent US9695155B2, “Herbicidal substituted pyrimidinyloxy benzene compounds” (E. I. DU PONT DE NEMOURS AND COMPANY, priority 2013, dated 2017)

Experiments:
blackgrass = test: Test C postemergence; assay type: in vivo, Alopecurus myosuroides
Procedure, shortened: (§1)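 Seeds were sown in loam–sand blend and sprayed preemergence, while plants at 1- to 4-leaf stage (2–18 cm) in peat-based medium received postemergence sprays; test chemicals were formulated in a non-phytotoxic solvent with surfactant. After 13–15 days in a greenhouse, injury was rated visually against controls, 0 (no effect) to 100 (complete control).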

pigweed = test: Test C postemergence; assay type: in vivo, Amaranthus retroflexus
Procedure, shortened: as §1

yellow nutsedge = test: Test C postemergence; assay type: in vivo, Cyperus esculentus
Procedure, shortened: as §1

rice = test: Test B flooded paddy test; assay type: in vivo, Oryza sativa; settings: Flood, 250 g ai/ha, 0 to 100 scale where 0 is no effect and 100 is complete control
Procedure, shortened: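 Plants at 2-leaf stage; pots flooded to 3 cm above soil and compound applied directly into paddy water, depth held throughout. After 13 to 15 days in greenhouse, visual rating versus controls on 0 (no effect) to 100 (complete control) scale.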

giant foxtail = test: Test A preemergence; assay type: in vivo, Setaria faberii
Procedure, shortened: (§2)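 Greenhouse pot test, loam/sand soil. Formulation: non-phytotoxic solvent mix plus surfactant. Pre: directed spray onto soil after sowing. Post: plants at 1–2 leaf, 2–10 cm. Rated visually vs untreated controls at ~10 d, 0 (no effect) to 100 (complete control).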

Italian ryegrass = test: Test C postemergence; assay type: in vivo, Lolium multiflorum
Procedure, shortened: as §1

ragweed = test: Test C postemergence; assay type: in vivo, Ambrosia elatior
Procedure, shortened: as §1

wild oat = test: Test C postemergence; assay type: in vivo, Avena fatua
Procedure, shortened: as §1

corn = test: Test A preemergence; assay type: in vivo, Zea mays
Procedure, shortened: as §2

wheat, winter = test: Test C postemergence; assay type: in vivo, Triticum aestivum
Procedure, shortened: as §1

lambsquarters = test: Test C postemergence; assay type: in vivo, Chenopodium album
Procedure, shortened: as §1

[1] = Postemergence, 31 g ai/ha, scale 0 to 100 (0 no effect, 100 complete control), 13 to 15 days
[2] = Postemergence, 62 g ai/ha, scale 0 to 100 (0 no effect, 100 complete control)
[3] = 125 g ai/ha, 0 to 100 scale where 0 is no effect and 100 is complete control
[4] = 500 g ai/ha, 0 to 100 scale, 0 no effect, 100 complete control, approx. 10 days

Fc1cnc(Oc2ccccc2-n2cc(Br)cn2)nc1 [Compound 10, 2-[2-(4-bromo-1H-pyrazol-1-yl)phenoxy]-5-fluoropyrimidine]
pest or weed control at 125 g/ha (blackgrass; Alopecurus myosuroides, post-emergence, 125 g ai/ha, postemergence, read-out: Plant response rating (0 to 100), Blackgrass): 40% | pest or weed control at 250 g/ha (blackgrass; Alopecurus myosuroides, post-emergence, 250 g ai/ha, postemergence, read-out: Plant response rating (0 to 100), Blackgrass): 75% | pest or weed control at 31 g/ha (blackgrass; Alopecurus myosuroides, post-emergence, Postemergence, 31 g ai/ha, scale 0 to 100 (0 no effect, 100 complete control), 13 to 15 days, read-out: Plant response rating, Blackgrass): 5% | pest or weed control at 62 g/ha (blackgrass; Alopecurus myosuroides, post-emergence, Postemergence, 62 g ai/ha, scale 0 to 100 (0 no effect, 100 complete control), read-out: Plant response rating, Blackgrass): 5% | pest or weed control at 125 g/ha (pigweed; Amaranthus retroflexus, post-emergence, 125 g ai/ha, postemergence, read-out: Plant response rating (0 to 100), Pigweed): 100% | pest or weed control at 250 g/ha (pigweed; Amaranthus retroflexus, post-emergence, 250 g ai/ha, postemergence, read-out: Plant response rating (0 to 100), Pigweed): 100% | pest or weed control at 31 g/ha (pigweed; Amaranthus retroflexus, post-emergence, Postemergence, 31 g ai/ha, scale 0 to 100 (0 no effect, 100 complete control), 13 to 15 days, read-out: Plant response rating, Pigweed): 75% | pest or weed control at 62 g/ha (pigweed; Amaranthus retroflexus, post-emergence, Postemergence, 62 g ai/ha, scale 0 to 100 (0 no effect, 100 complete control), read-out: Plant response rating, Pigweed): 98% | pest or weed control at 125 g/ha (yellow nutsedge; Cyperus, post-emergence, 125 g ai/ha, postemergence, read-out: Plant response rating (0 to 100), Nutsedge, Yellow): 5% | pest or weed control at 250 g/ha (yellow nutsedge; Cyperus, post-emergence, 250 g ai/ha, postemergence, read-out: Plant response rating (0 to 100), Nutsedge, Yellow): 5% | pest or weed control at 31 g/ha (yellow nutsedge; Cyperus, post-emergence, Postemergence, 31 g ai/ha, scale 0 to 100 (0 no effect, 100 complete control), 13 to 15 days, read-out: Plant response rating, Nutsedge, Yellow): 0% | pest or weed control at 62 g/ha (yellow nutsedge; Cyperus, post-emergence, Postemergence, 62 g ai/ha, scale 0 to 100 (0 no effect, 100 complete control), read-out: Plant response rating, Nutsedge, Yellow): 5% | plant injury at 250 g/ha (rice; Oryza sativa, read-out: Plant response rating, Rice): 0% | pest or weed control at 125 g/ha (giant foxtail; Setaria faberi, pre-emergence, 240 h, 125 g ai/ha, 0 to 100 scale where 0 is no effect and 100 is complete control, read-out: Foxtail, Giant plant response rating): 90% | pest or weed control at 500 g/ha (giant foxtail; Setaria faberi, pre-emergence, 240 h, 500 g ai/ha, 0 to 100 scale, 0 no effect, 100 complete control, approx. 10 days, read-out: Foxtail, Giant plant response rating): 100% | pest or weed control at 125 g/ha (Italian ryegrass; Lolium multiflorum, post-emergence, 125 g ai/ha, postemergence, read-out: Plant response rating (0 to 100), Ryegrass, Italian): 5% | pest or weed control at 250 g/ha (Italian ryegrass; Lolium multiflorum, post-emergence, 250 g ai/ha, postemergence, read-out: Plant response rating (0 to 100), Ryegrass, Italian): 10% | pest or weed control at 31 g/ha (Italian ryegrass; Lolium multiflorum, post-emergence, Postemergence, 31 g ai/ha, scale 0 to 100 (0 no effect, 100 complete control), 13 to 15 days, read-out: Plant response rating, Ryegrass, Italian): 0% | pest or weed control at 62 g/ha (Italian ryegrass; Lolium multiflorum, post-emergence, Postemergence, 62 g ai/ha, scale 0 to 100 (0 no effect, 100 complete control), read-out: Plant response rating, Ryegrass, Italian): 0% | pest or weed control at 125 g/ha (ragweed; Ambrosia artemisiifolia, post-emergence, 125 g ai/ha, postemergence, read-out: Plant response rating (0 to 100), Ragweed): 55% | pest or weed control at 250 g/ha (ragweed; Ambrosia artemisiifolia, post-emergence, 250 g ai/ha, postemergence, read-out: Plant response rating (0 to 100), Ragweed): 80% | pest or weed control at 31 g/ha (ragweed; Ambrosia artemisiifolia, post-emergence, Postemergence, 31 g ai/ha, scale 0 to 100 (0 no effect, 100 complete control), 13 to 15 days, read-out: Plant response rating, Ragweed): 50% | pest or weed control at 62 g/ha (ragweed; Ambrosia artemisiifolia, post-emergence, Postemergence, 62 g ai/ha, scale 0 to 100 (0 no effect, 100 complete control), read-out: Plant response rating, Ragweed): 50% | pest or weed control at 125 g/ha (wild oat; Avena fatua, post-emergence, 125 g ai/ha, postemergence, read-out: Plant response rating (0 to 100), Oat, Wild): 5% | pest or weed control at 250 g/ha (wild oat; Avena fatua, post-emergence, 250 g ai/ha, postemergence, read-out: Plant response rating (0 to 100), Oat, Wild): 30% | pest or weed control at 31 g/ha (wild oat; Avena fatua, post-emergence, Postemergence, 31 g ai/ha, scale 0 to 100 (0 no effect, 100 complete control), 13 to 15 days, read-out: Plant response rating, Oat, Wild): 0% | pest or weed control at 62 g/ha (wild oat; Avena fatua, post-emergence, Postemergence, 62 g ai/ha, scale 0 to 100 (0 no effect, 100 complete control), read-out: Plant response rating, Oat, Wild): 0% | plant injury at 125 g/ha (corn; Zea mays, pre-emergence, 240 h, 125 g ai/ha, 0 to 100 scale where 0 is no effect and 100 is complete control, read-out: Corn plant response rating): 0% | plant injury at 500 g/ha (corn; Zea mays, pre-emergence, 240 h, 500 g ai/ha, 0 to 100 scale, 0 no effect, 100 complete control, approx. 10 days, read-out: Corn plant response rating): 20% | plant injury at 125 g/ha (wheat, winter; Triticum aestivum, post-emergence, 125 g ai/ha, postemergence, read-out: Plant response rating (0 to 100), Wheat): 5% | plant injury at 250 g/ha (wheat, winter; Triticum aestivum, post-emergence, 250 g ai/ha, postemergence, read-out: Plant response rating (0 to 100), Wheat): 10% | plant injury at 31 g/ha (wheat, winter; Triticum aestivum, post-emergence, Postemergence, 31 g ai/ha, scale 0 to 100 (0 no effect, 100 complete control), 13 to 15 days, read-out: Plant response rating, Wheat): 5% | plant injury at 62 g/ha (wheat, winter; Triticum aestivum, post-emergence, Postemergence, 62 g ai/ha, scale 0 to 100 (0 no effect, 100 complete control), read-out: Plant response rating, Wheat): 5% | pest or weed control at 125 g/ha (lambsquarters; Chenopodium album, post-emergence, 125 g ai/ha, postemergence, read-out: Plant response rating (0 to 100), Lambsquarters): 75% | pest or weed control at 250 g/ha (lambsquarters; Chenopodium album, post-emergence, 250 g ai/ha, postemergence, read-out: Plant response rating (0 to 100), Lambsquarters): 98% | pest or weed control at 31 g/ha (lambsquarters; Chenopodium album, post-emergence, Postemergence, 31 g ai/ha, scale 0 to 100 (0 no effect, 100 complete control), 13 to 15 days, read-out: Plant response rating, Lambsquarters): 55% | pest or weed control at 62 g/ha (lambsquarters; Chenopodium album, post-emergence, Postemergence, 62 g ai/ha, scale 0 to 100 (0 no effect, 100 complete control), read-out: Plant response rating, Lambsquarters): 55%

N#Cc1cccc(Oc2ncc(F)cn2)c1-n1cc(Br)cn1 [Compound 62]
Plant response rating (0 to 100), Blackgrass (blackgrass; 125 g ai/ha, postemergence): 30 | Plant response rating (0 to 100), Blackgrass (blackgrass; 250 g ai/ha, postemergence): 50 | Plant response rating, Blackgrass (blackgrass; [1]): 0 | Plant response rating, Blackgrass (blackgrass; [2]): 5 | Plant response rating (0 to 100), Pigweed (pigweed; 125 g ai/ha, postemergence): 75 | Plant response rating (0 to 100), Pigweed (pigweed; 250 g ai/ha, postemergence): 80 | Plant response rating, Pigweed (pigweed; [1]): 50 | Plant response rating, Pigweed (pigweed; [2]): 65 | Plant response rating (0 to 100), Nutsedge, Yellow (yellow nutsedge; 125 g ai/ha, postemergence): 5 | Plant response rating (0 to 100), Nutsedge, Yellow (yellow nutsedge; 250 g ai/ha, postemergence): 15 | Plant response rating, Nutsedge, Yellow (yellow nutsedge; [1]): 0 | Plant response rating, Nutsedge, Yellow (yellow nutsedge; [2]): 5 | Plant response rating, Rice (rice): 0 | Plant response rating, Foxtail, Giant (giant foxtail; [3]): 90 | Foxtail, Giant plant response rating (giant foxtail; [4]): 100 | Plant response rating (0 to 100), Ryegrass, Italian (Italian ryegrass; 125 g ai/ha, postemergence): 5 | Plant response rating (0 to 100), Ryegrass, Italian (Italian ryegrass; 250 g ai/ha, postemergence): 15 | Plant response rating, Ryegrass, Italian (Italian ryegrass; [1]): 0 | Plant response rating, Ryegrass, Italian (Italian ryegrass; [2]): 0 | Plant response rating (0 to 100), Ragweed (ragweed; 125 g ai/ha, postemergence): 50 | Plant response rating (0 to 100), Ragweed (ragweed; 250 g ai/ha, postemergence): 50 | Plant response rating, Ragweed (ragweed; [1]): 40 | Plant response rating, Ragweed (ragweed; [2]): 40 | Plant response rating (0 to 100), Oat, Wild (wild oat; 125 g ai/ha, postemergence): 30 | Plant response rating (0 to 100), Oat, Wild (wild oat; 250 g ai/ha, postemergence): 35 | Plant response rating, Oat, Wild (wild oat; [1]): 0 | Plant response rating, Oat, Wild (wild oat; [2]): 0 | Plant response rating, Corn (corn; [3]): 0 | Corn plant response rating (corn; [4]): 90 | Plant response rating (0 to 100), Wheat (wheat, winter; 125 g ai/ha, postemergence): 5 | Plant response rating (0 to 100), Wheat (wheat, winter; 250 g ai/ha, postemergence): 20 | Plant response rating, Wheat (wheat, winter; [1]): 0 | Plant response rating, Wheat (wheat, winter; [2]): 0 | Plant response rating (0 to 100), Lambsquarters (lambsquarters; 125 g ai/ha, postemergence): 85 | Plant response rating (0 to 100), Lambsquarters (lambsquarters; 250 g ai/ha, postemergence): 90 | Plant response rating, Lambsquarters (lambsquarters; [1]): 60 | Plant response rating, Lambsquarters (lambsquarters; [2]): 60
